Experimental data published in US20110059953A1, “COMPOUNDS FOR USE IN STABILIZING P53 MUTANTS” (priority 2008, published 2011).

Columns and labels:
T-p53C-Y220C [1] = biological target: T1, T-p53C-Y220C (Homo sapiens, UniProt P04637, M133L/N239Y/N268D/V203A/Y220C); assay: Thermal denaturation using capillary DSC; format: binding; conditions: increase in Tm on adding 250 μM of the test compound; 20 μM protein
T1 construct: For all other experiments, the DNA coding for residues 94-312 of T-p53C was inserted into a modified pET24a(+) vector; 6xHis tag + B. stearothermophilus dihydrolipoyl acetyltransferase lipoyl domain (aa 1-85) + TEV site (N, cleaved yes); made in house; host or cells: Escherichia coli BL21 (DE3) or C41 (DE3)
Procedure: Differential Scanning calorimetry (DSC) was used to probe the stabilising effect of the ligands on […]. For a reversible two-state system, the melting temperature, Tm, is the transition temperature where the folded and unfolded states are equally populated.
DSC experiments were performed using a Microcal VP-Capillary DSC instrument (Microcal, Amherst, Mass.) with an active cell volume of ˜125 μl. Protein samples were buffer exchanged into 25 mM NaPi, pH 7.2, 150 mM NaCl, 5 mM DTT. This buffer + the respective concentration of ligand/DMSO was used for baseline scans, so that the only difference between sample and reference cell or sample cell in the measurement and both cells in the baseline scan is the presence of the protein. A final concentration of 20 μM T-p53C-Y220C was used. A pressure of 2.5 bars (nitrogen) was applied to the cell. Temperatures from 10 to 85° C. were scanned at a rate of 250° C./h, with a filtering period of 4 seconds and feedback gain/mode set at medium. Data were analysed with ORIGIN software (Microcal).
The following tables show the results of the thermal denaturation studies using capillary DSC, where ΔTm is the increase in Tm on adding 250 μM of the test compound. The Dunnett significance test (P) value given is the calculated probability that the change in Tm is insignificant.

T-p53C-Y220C [2] = biological target: T1, T-p53C-Y220C; assay: Thermal denaturation using fluorescence (Sypro Orange); format: binding; conditions: further studies on compounds described above; 10 μM protein
Procedure: This was by an adaption of the classical procedure (e.g. ref A6). Thermal unfolding was monitored by the binding of the dye Sypro Orange (5×) using a Rotor-gene 6000 (Corbett Life Science) at 270 K/h in 25 mM NaPi, 150 mM NaCl and 5 mM DTT, pH 7.2 with a protein concentration of 10 μM.
(§1) Where listed, S.E. is the calculated standard error.
as §1

| Structure (SMILES) | ΔTm (T-p53C-Y220C [1]) | ΔTm (° C.) (T-p53C-Y220C [2]) |
| --- | --- | --- |
| CCn1c2ccccc2c2cc(NC(=O)CSc3nccc(=O)[nH]3)ccc21 [PK095] | 0.39 °C | – |
| CCn1c2ccccc2c2cc(NC(=O)CSc3nnc(N)s3)ccc21 [PK099] | 0.53 °C | 0.53 °C |
| CCn1c2ccccc2c2cc(NC(=S)Nc3cc(S(=O)(=O)N(C)C)ccc3C)ccc21 [PK102] | 0.37 °C | 0.37 °C |
| CCn1c2ccccc2c2cc(NC(=O)CN3C(=O)NC(C)(c4ccc(C)cc4)C3=O)ccc21 (stereo not drawn) [PK110] | 0.37 °C | 0.37 °C |
| CCn1c2ccccc2c2cc(NC(=O)COC(=O)Cn3cnc4c3c(=O)n(C)c(=O)n4C)ccc21 [PK114] | 0.39 °C | 0.39 °C |
| CCn1c2ccccc2c2cc(NC(=O)Cc3ccc(S(=O)(=O)N4CCOCC4)s3)ccc21 [PK115] | 0.49 °C | 0.49 °C |
| CCn1c2ccccc2c2cc(NC(=O)CN3C(=O)c4ccccc4S3(=O)=O)ccc21 [PK117] | 0.47 °C | 0.47 °C |
| CCn1c2ccccc2c2cc(NC(=O)C(C)OC(=O)c3ccc([N+](=O)[O-])o3)ccc21 (stereo not drawn) [PK119] | 0.48 °C | 0.48 °C |
| CCn1c2ccccc2c2cc(NC(=O)C(C)OC(=O)c3ccc(-n4cnnn4)cc3)ccc21 (stereo not drawn) [PK134] | 0.4 °C | 0.4 °C |
| CCn1c2ccccc2c2cc(NC(=O)COC(=O)c3cc(C(=O)OC)cc([N+](=O)[O-])c3)ccc21 [PK137] | 0.29 °C | 0.3 °C |
| CCn1c2ccccc2c2cc(NC(=O)COC(=O)c3ccc(-n4cnnn4)cc3)ccc21 [PK138] | 0.54 °C | 0.54 °C |
| CCn1c2ccccc2c2cc(NC(=O)COC(=O)c3ccc(NC(=O)CC#N)cc3)ccc21 [PK140] | 0.51 °C | 0.513 °C |
| CCn1c2ccccc2c2cc(NC(=O)CCc3c(C)[nH]c(=O)c(C#N)c3C)ccc21 [PK141] | 0.48 °C | 0.48 °C |
| CCCN1CCN(C(C)C(=O)Nc2ccc3c(c2)c2ccccc2n3CC)CC1 (stereo not drawn) [PK142] | 0.26 °C | 0.26 °C |
| CCn1c2ccccc2c2cc(NC(=O)C(C)Sc3nc(N)cc(=O)[nH]3)ccc21 (stereo not drawn) [PK143] | 0.24 °C | 0.24 °C |
| COc1ccc(N2CCN(Cc3cc4c(cc3O)[nH]c3ccccc34)CC2)cc1 [PK144] | 0.51 °C | 0.51 °C |
| CCn1c2ccccc2c2cc(CN(C)C(=O)NC3CCS(=O)(=O)C3)ccc21 (stereo not drawn) [PK148] | 0.23 °C | 0.225 °C |
| CCn1c2ccccc2c2cc(NC(=O)C(C)N3CCN(CC(N)=O)CC3)ccc21 (stereo not drawn) [PK152] | 0.22 °C | 0.22 °C |
| CCn1c2ccccc2c2cc(NC(C)C(=O)NC(N)=O)ccc21 (stereo not drawn) [PK158] | 0.63 °C | 0.63 °C |
| CCn1c2ccccc2c2cc(NC(=O)CN3C(=O)NC(C)(c4ccc(OC)cc4)C3=O)ccc21 (stereo not drawn) [PK160] | 0.42 °C | 0.42 °C |
| CCn1c2ccccc2c2cc(NC(=O)CN(CC(N)=O)C(C)C)ccc21 [PK161] | 0.47 °C | 0.46 °C |
| CCn1c2ccccc2c2cc(CN(C)C(=O)c3nccnc3N)ccc21 [PK164] | 0.51 °C | 0.51 °C |
| CCn1c2ccccc2c2cc(NC(=O)c3ccc(OCC(N)=O)cc3)ccc21 [PK166] | 0.64 °C | 0.64 °C |
| CCNC(=S)Nc1ccc2c(c1)c1ccccc1n2CC [PK168] | 0.41 °C | 0.4 °C |
| CCn1c2ccccc2c2cc(CN(C)C3CCN(C)CC3)ccc21 [PK178] | 0.5 °C | 0.34 °C |
| CCn1c2ccccc2c2cc(CN3CCC(N4CCCCC4)CC3)ccc21 [PK188] | 0.39 °C | 0.39 °C |
| CCN(CCN(C)C)Cc1ccc2c(c1)c1ccccc1n2CC [PK189] | 0.23 °C | 0.23 °C |
| CCn1c2ccccc2c2cc(CNCCc3c[nH]c4ccccc34)ccc21 [PK193] | 0.3 °C | 0.3 °C |
| CCn1c2ccccc2c2cc(CNCCc3ccccc3)ccc21 [PK194] | 0.38 °C | 0.38 °C |
